From ChEMBL document CHEMBL4017513, “Structure-Activity Relationships of Potent, Targeted Covalent Inhibitors That Abolish Both the Transamidation and GTP Binding Activities of Human Tissue Transglutaminase” (J Med Chem, 2017) come the findings set out here.

The target of test [1] is T1, Protein-glutamine gamma-glutamyltransferase (Homo sapiens, UniProt P21980).
T1 sequence (P21980 whole entry): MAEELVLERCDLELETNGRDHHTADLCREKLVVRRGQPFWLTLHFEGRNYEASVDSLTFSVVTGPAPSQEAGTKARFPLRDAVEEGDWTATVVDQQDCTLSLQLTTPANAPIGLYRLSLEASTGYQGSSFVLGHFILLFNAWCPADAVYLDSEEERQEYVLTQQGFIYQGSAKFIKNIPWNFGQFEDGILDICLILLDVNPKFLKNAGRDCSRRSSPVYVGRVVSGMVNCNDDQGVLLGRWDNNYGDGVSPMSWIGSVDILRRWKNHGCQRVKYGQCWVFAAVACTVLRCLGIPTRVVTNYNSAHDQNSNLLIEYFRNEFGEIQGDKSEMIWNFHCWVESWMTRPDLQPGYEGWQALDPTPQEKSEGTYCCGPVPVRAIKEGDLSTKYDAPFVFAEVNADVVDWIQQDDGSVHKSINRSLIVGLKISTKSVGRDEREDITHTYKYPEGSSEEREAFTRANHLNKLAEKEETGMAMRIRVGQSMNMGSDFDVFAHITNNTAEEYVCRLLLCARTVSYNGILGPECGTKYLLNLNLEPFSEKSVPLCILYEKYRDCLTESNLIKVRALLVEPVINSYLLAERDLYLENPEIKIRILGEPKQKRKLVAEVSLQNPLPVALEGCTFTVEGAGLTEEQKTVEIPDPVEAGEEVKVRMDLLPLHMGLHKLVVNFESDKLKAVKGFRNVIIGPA
The experiment in a line: (§1) Irreversible inhibition of human TG2 using AL5 as substrate by colorimetric assay.

Test [2] deals with T2, Protein-glutamine gamma-glutamyltransferase (Homo sapiens) (UniProt P21980).
T2 sequence (whole entry): T1 sequence (P21980 whole entry)
The description is as §1.

Test [3] in a line: Antimigratory activity in human ECS cells at 20 uM treated for 2 hrs measured after 30 hrs by DAPI staining-based inverted fluorescent microscopy relative vehicle-treated control. The class given is functional.
Test [4] in a line: Inhibition of guinea pig liver TG2 using Z-Gln-Gly/DMPDA as substrate preincubated for 3 mins followed by protein addition. Details: species or system Cavia porcellus.
The target of test [5] is T3, Protein-glutamine gamma-glutamyltransferase E (Homo sapiens) (UniProt Q08188).
T3 sequence (whole entry): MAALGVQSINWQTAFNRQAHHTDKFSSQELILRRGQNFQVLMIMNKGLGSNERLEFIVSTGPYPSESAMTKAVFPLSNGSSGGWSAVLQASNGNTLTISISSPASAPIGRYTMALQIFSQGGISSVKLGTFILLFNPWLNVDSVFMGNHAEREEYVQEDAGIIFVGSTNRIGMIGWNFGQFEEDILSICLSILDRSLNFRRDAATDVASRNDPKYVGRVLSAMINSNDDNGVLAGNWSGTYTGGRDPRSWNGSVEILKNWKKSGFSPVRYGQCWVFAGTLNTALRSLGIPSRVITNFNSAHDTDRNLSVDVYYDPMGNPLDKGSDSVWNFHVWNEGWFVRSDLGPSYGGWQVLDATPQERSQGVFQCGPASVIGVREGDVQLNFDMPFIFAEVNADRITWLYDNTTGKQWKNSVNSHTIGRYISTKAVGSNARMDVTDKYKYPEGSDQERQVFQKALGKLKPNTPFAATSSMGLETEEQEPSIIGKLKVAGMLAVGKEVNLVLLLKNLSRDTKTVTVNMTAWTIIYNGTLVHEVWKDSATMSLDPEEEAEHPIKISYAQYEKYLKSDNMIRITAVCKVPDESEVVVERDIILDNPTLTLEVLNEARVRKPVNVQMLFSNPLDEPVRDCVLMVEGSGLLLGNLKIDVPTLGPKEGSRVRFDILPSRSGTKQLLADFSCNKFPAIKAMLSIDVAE
The experiment in a line: Inactivation of activated human TG3 assessed as rate constant of enzyme inactivation using FRET- quenched A101 as substrate by fluorescence assay.

The species entered for a further test is Homo sapiens. The experiment in a line: Selectivity ratio of Kobs for human TG2 to Kobs for activated human TG3.
The target in test [6] is T4, Protein-glutamine gamma-glutamyltransferase 6 (Homo sapiens) (UniProt O95932).
T4 sequence (whole entry): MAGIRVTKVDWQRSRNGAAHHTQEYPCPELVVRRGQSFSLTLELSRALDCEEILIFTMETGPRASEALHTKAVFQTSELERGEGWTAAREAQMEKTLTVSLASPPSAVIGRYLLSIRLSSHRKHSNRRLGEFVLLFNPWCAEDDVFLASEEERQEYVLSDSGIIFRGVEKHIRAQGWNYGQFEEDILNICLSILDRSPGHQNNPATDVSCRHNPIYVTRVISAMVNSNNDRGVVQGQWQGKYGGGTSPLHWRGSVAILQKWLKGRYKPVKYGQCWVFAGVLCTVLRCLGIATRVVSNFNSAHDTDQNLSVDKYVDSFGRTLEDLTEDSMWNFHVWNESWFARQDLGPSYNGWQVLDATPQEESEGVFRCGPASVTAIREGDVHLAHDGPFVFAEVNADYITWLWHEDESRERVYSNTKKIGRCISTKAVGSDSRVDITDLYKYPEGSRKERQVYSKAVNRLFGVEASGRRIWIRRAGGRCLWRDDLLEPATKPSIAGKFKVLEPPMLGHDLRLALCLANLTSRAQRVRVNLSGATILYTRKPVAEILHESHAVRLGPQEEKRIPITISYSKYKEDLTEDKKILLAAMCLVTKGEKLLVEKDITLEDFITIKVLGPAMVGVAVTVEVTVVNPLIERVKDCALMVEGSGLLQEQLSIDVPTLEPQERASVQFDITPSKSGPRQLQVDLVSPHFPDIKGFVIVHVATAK
The test is described as follows: Inactivation of human TG6 using AL5 as substrate by colorimetric assay.

`C=CC(=O)NCCCC[C@H](NC(=O)OCc1ccccc1)C(=O)NCCOCCOCCNS(=O)(=O)c1cccc2c(N(C)C)cccc12`: the Ki turned out to be 33.9 µM in test [1] and 29 µM in test [4]. In test [2], this compound returned a Kinact of 2.6 min⁻¹. This compound also came in with an Activity in test [3] of 50%. For the same compound, the results for the K in test [5] and in test [6] were 1.01 ×10⁻³ /min and 6.16 ×10⁻³ /min, respectively. Also, the Selectivity ratio in the test filed under Homo sapiens came to 390.
